Measured values as given in PMC7291367, “Insightful Backbone Modifications Preventing Proteolytic Degradation of Neurotensin Analogs Improve NTS1-Induced Protective Hypothermia” (Frontiers in Chemistry, 2020).
“Also recorded” adds a separate entry of the source. Read-outs that look alike come from different tables or passages of the source. Numbered stars: 1 amine (or outer) side, 2 acyl side, 3 side chain; on linkers, the order of the positions; unused ones are H or OH. Square brackets hold non-standard residues; d marks the D form. Peptide text beside a SMILES is read from it. X1 = NCCCC[C@H](N)CN([C@@H](CCCCN)C(=O)[*:2])[*:1]; Ala(SiMe3) = C[Si](C)(C)C[C@H](N)C(=O)O; Dmt = Cc1cc(O)cc(C)c1C[C@H](N)C(=O)O; Tle = CC(C)(C)[C@H](N)C(=O)O

Columns and labels:
hNTS2 [1] = target: T1, hNTS2 (Homo sapiens, UniProt O95665); conditions: Ki values taken from the literature (Figure 1 legend) ref Fanelli et al., 2015; Eiselt et al., 2019; read-out: Binding, Ki hNTS2; cited from earlier work
[2] = Plasma stability assay (UPLC/MS); assay type: in vitro ADME; conditions: rat, plasma, 37°C, incubation up to 24 h
Experimental: Rat plasma was obtained from blood by keeping the translucent phase after centrifugation at 15,000 g over 5 min. Plasma stability assay was carried out by incubating each compound at different incubation times in rat plasma at a final concentration of 0.156 mM. […] Then, 70 μl of a solution containing 10% trichloroacetic acid (TCA) and 0.5% nicotinamine, an internal standard, was added to stop the degradation by proteases. After centrifugation at 15,000 g for 30 min, supernatant was filtered through 0.22-μm filter and analyzed by UPLC/MS (Water H Class Acquity UPLC, mounted with Acquity UPLC BEH C18 column, 1.7 μm, 2.1 × 50 mm and paired to a SQ Detector 2). Compounds 1, 2, and 5 were analyzed using the mass or UV spectrum. Quantification was done by determining the area under the curve (AUC) ratio of each compound over AUC of nicotinamine for each incubation time. Data were plotted into GraphPad Prism 8 and the half-life of each compound was calculated using one-phase decay fit and represented the mean ± SEM of minimum three separate experiments.

hNTS1 [3] = target: T2, hNTS1 (Homo sapiens, UniProt P30989); conditions: 2015, cited from earlier work
hNTS2 [4] = target: T1, hNTS2; assay: Competitive radioligand binding assay, 125I-[Tyr3]-NT displacement, 1321N1 cell membranes; conditions: ratio of Ki hNTS1 to Ki hNTS2
Experimental: (§1) All media and additives are from Wisent (St-Bruno, QC). […] After 1 h of incubation at room temperature, the binding reaction mixture was transferred in polyethylenimine-coated 96-well-filter plates (Millipore, Billerica, MA). Reaction was terminated by filtration, and plates were washed three times with 200 μl of ice-cold binding buffer. […] Data were plotted using GraphPad Prism 8 using the One-site—Fit log (IC50) and represent the mean ± SEM of at least three separate experiments performed in triplicate.

Sprague-Dawley rats = assay: Body temperature measurement after intrathecal injection; assay type: in vivo; conditions: rat; for effect on body temperature: compared to the saline-treated group; for Hypothermia ΔTemp: 30 μg/kg, i.t., change in body temperature from baseline at 60 min
From the text: The experimental procedures in this study were approved by the Animal Care Committee of the Université de Sherbrooke (protocol n°035-18B) and were in accordance with policies and directives of the Canadian Council on Animal Care. Adult male Sprague-Dawley rats, weighing 175–225 g (Charles River laboratories, St-Constant, Québec, Canada), were maintained on a 12-h light/dark cycle with free access to food and water and were housed two per cage on Aspen shavings in a quiet room.
Rats were lightly anesthetized with isoflurane/oxygen (Baxter corporation, Mississauga, ON, Canada; 2 L/min) flow and 25 μl of each compound were injected intrathecally with a 27-G 1/2 needle (BD PrecisionGlide, USA) into the subarachnoid space between vertebrae L5 and L6. Analogs 1–14 were diluted in physiological saline at 5 mg/ml, whereas compounds 15 and 16 were diluted in DMSO. For body temperature measurement, the injected solution of these both compounds contained 6% DMSO at final concentration (30 μg/kg).
Three consecutive days prior to testing, animals were individually acclimatized to manipulations and to a thermistor probe 5 min per day. The day of the test, experiments were always performed in a quiet room and between 8:00 and 12:00 PM. to reduce any variation related to the circadian rhythm. Body temperature was measured using a thermistor probe inserted into the rectum of adult Sprague-Dawley rats. Temperatures were recorded immediately before (baseline) and each 10 min for up to 60 min following intrathecal administration of saline, vehicle (6% DMSO) or NT analogs at 30 μg/kg. Changes in body temperature (Δ body temp) from baseline were determined for each animal. Data are expressed as mean ± SEM of 5 to 20 animals per condition.
Data are expressed as mean ± standard errors of the mean (SEM). All graphs and statistical analysis were performed using GraphPad Prism 8 (GraphPad software, La Jolla, CA, USA). A two-way ANOVA followed by Bonferroni's multiple comparisons test was used to determine significant differences between drug- and vehicle-treated rats at different timepoints post-injection.

hNTS1 [5] = target: T2, hNTS1; assay: Competitive radioligand binding assay, 125I-[Tyr3]-NT displacement, CHO-K1 cell membranes
Experimental: as §1

[6] = Ki values taken from the literature (Figure 1 legend) ref Fanelli et al., Eiselt et al., 2019, read-out: Binding, Ki hNTS1

T1 sequence (O95665 whole entry): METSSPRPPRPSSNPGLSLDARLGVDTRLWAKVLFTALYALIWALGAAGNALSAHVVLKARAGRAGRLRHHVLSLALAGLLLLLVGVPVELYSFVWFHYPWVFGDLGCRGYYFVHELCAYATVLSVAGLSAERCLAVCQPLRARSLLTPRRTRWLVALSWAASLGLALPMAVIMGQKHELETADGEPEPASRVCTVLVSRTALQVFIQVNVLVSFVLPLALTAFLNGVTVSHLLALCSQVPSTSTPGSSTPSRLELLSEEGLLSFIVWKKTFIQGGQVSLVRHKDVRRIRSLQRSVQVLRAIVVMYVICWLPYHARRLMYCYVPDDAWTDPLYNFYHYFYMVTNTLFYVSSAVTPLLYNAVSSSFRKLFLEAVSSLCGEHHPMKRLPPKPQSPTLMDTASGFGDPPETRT
T2 sequence (P30989 whole entry): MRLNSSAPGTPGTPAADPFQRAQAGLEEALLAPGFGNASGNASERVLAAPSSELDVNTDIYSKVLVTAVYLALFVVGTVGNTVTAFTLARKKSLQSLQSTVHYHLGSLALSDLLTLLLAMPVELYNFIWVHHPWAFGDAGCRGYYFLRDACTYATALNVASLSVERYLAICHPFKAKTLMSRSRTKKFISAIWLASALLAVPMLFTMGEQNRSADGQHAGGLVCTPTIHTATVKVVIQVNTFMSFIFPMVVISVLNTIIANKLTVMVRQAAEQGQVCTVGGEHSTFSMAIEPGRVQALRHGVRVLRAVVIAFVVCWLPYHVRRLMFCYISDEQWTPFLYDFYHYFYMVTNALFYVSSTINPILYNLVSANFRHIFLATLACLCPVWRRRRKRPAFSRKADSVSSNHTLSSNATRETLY

For `Cc1cc(O)cc(C)c1C[C@H](NC(=O)[C@@H]1CCCN1C(=O)[C@H](CCCCN)NC[C@@H](N)CCCCN)C(=O)N[C@H](C(=O)N[C@@H](CC(C)C)C(=O)O)C(C)(C)C` [Compound 16, H-Lysψ[CH2NH]Lys-Pro-Dmt-Tle-Leu-OH] (H-[X1]P[Dmt][Tle]L-OH), the Ki (hNTS2 [1]) is given as 1.4 ± 0.5 nM, the half-life at 0.156 mM [2] is given as over 20 h and the Ki (hNTS1 [3]; [6]) is given as 110 ± 2 nM. The NTS1/NTS2 selectivity (hNTS2 [4]) was 79, the “effect on body temperature” value (Sprague-Dawley rats; 30 μg/kg i.t.) was “long-lasting hypothermia” and the “Hypothermia ΔTemp” value (Sprague-Dawley rats) was −2.0 ± 0.3 °C. For the same molecule, the temperature drop (Sprague-Dawley rats; for up to 60 min, 30 μg/kg i.t.) was “more than 2 °C”.

For `CC[C@H](C)[C@H](NC(=O)[C@H](Cc1ccc(O)cc1)NC(=O)[C@@H]1CCCN1C(=O)[C@H](CCCCN)NC(=O)[C@@H](N)CCCCN)C(=O)N[C@@H](C[Si](C)(C)C)C(=O)O` [Compound 3, H-Lys-Lys-Pro-Tyr-Ile-TMSAla-OH] (H-KKPYI[Ala(SiMe3)]-OH), the Ki (hNTS2 [1]) is listed as 0.25 ± 0.07 nM, the “fold increase in affinity at NTS1” value (hNTS1 [5]; compared to 1) is listed as 220 fold and the “fold increase in affinity at NTS1” value (hNTS1 [5]; compared to native NT(8-13)) is listed as 80 fold. The Ki (hNTS1 [3]; [6]) was 0.018 ± 0.004 nM, the Ki (hNTS1 [3]; ref Fanelli et al., read-out: Ki NTS1) was about 0.02 nM and the NTS1/NTS2 selectivity (hNTS2 [4]) was 0.1. For the same molecule, the “effect on body temperature” value (Sprague-Dawley rats; 30 μg/kg i.t.) was “not effective in reducing the body temperature; also recorded: not effective to induce drop in body temperature” and the “Hypothermia ΔTemp” value (Sprague-Dawley rats) was −0.07 ± 0.1 °C.
